Results from patent US20240294518A1, “NITROGEN-CONTAINING HETEROCYCLIC COMPOUND” (Evopoint Biosciences Co., Ltd., priority 2021, published 2024).

Target: HPK1 kinase (Homo sapiens, UniProt Q92918)
Assay: HPK1 kinase inhibition assay, ADP-Glo platform
Format: biochemical
Settings: 0.3 nM HPK1, 5 μM ATP, 0.05 mg/mL MBP
Description: The compounds to be tested were each dissolved in 100% DMSO, with the mother liquor concentration being 10 mM. The liquor was 3-fold diluted at a test starting concentration of 10 μM to yield ten data points, with two replicates set for each point.
The inhibition of the activity of HPK1 kinase by the compound was assayed using an ADP-Glo™ platform. The reaction was performed in a 384-well plate containing 0.3 nM HPK1, 5 μM ATP, 0.05 mg/mL MBP, 0-10 μM compound, and 1% DMSO per well. The reaction buffer was as follows: 50 mM HEPES, 10 mM MgCl2, 1 mM EGTA, 1 mM DTT, 0.01% Brij 35, pH=7.5. The compound and the kinase were incubated at 25° C. for 15 min, and a substrate and ATP were added to initiate the reaction. After 1 h of reaction at 25° C., the ADP-Glo™ reagent was added, and the reaction was terminated, followed by incubation at 25° C. for 1 h. The kinase detection reagent was added, and after 1 h of incubation at 25° C., the chemiluminescence signal was detected. Based on this reading, inhibition percentage was calculated, and IC50 for the compound was calculated using four-parameter fitting.

HPK1 kinase, sequence (Q92918 whole entry): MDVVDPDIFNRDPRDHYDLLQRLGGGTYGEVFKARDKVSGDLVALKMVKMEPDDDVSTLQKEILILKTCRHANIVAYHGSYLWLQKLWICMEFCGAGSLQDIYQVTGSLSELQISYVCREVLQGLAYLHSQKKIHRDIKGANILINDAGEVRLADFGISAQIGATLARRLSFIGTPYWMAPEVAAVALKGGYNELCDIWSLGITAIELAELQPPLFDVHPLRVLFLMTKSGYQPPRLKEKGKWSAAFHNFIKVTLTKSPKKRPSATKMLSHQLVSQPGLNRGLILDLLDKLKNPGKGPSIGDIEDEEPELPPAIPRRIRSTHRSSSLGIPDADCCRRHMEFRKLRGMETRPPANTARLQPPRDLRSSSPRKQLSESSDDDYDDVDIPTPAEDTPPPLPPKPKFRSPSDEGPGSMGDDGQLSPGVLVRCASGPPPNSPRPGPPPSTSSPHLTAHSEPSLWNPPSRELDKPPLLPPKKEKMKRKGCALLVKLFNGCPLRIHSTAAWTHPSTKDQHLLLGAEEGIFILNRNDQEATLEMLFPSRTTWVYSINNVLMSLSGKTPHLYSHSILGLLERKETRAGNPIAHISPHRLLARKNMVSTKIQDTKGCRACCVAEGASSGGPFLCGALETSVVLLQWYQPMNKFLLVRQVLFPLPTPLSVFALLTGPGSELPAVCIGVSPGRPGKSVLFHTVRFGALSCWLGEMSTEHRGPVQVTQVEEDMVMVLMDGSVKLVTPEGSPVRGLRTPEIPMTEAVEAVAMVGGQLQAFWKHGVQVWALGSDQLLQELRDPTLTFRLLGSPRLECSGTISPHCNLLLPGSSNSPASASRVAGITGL

Structure (SMILES)	IC50 [nM]
Cc1c[nH]c2ncc(-c3ccc(C4CCOCC4)c(C4COCCN4)n3)c(F)c12 (stereo not drawn) [Compound A-7]	10 to 100
COc1cc(-c2cnc3[nH]cc(C)c3c2)cc(C2COCCN2)c1C1CCOCC1 (stereo not drawn) [Compound A-9]	5 to 10
Cc1c[nH]c2ncc(-c3ccc(C4CCOCC4)c(C4COCCN4)c3F)cc12 (stereo not drawn) [Compound A-10]	10 to 100
FC(F)(F)c1c[nH]c2ncc(-c3ccc(C4CCOCC4)c(CN4CCCC4)n3)cc12 [Compound A-23]	5 to 10
Cc1c[nH]c2ncc(-c3ccc(C4CCOCC4)c(C4COCCN4)c3)c(F)c12 (stereo not drawn) [Compound A-3]	5 to 10
Cc1cc(-c2cnc3[nH]cc(C(F)(F)F)c3c2)nc(C2COCCN2)c1C1CCOCC1 (stereo not drawn) [Compound A-27]	0.01 to 5
c1nc2[nH]cc(C3CC3)c2cc1-c1ccc(C2CCOCC2)c([C@@H]2COCCN2)n1 [Compound A-15]	0.01 to 5
c1nc2[nH]cc(C3CC3)c2cc1-c1ccc(C2CCOCC2)c(CN2CCCC2)n1 [Compound A-22]	0.01 to 5
OCc1c[nH]c2ncc(-c3ccc(C4CCOCC4)c(C4COCCN4)n3)cc12 (stereo not drawn) [Compound A-21]	5 to 10
CN(C)Cc1nc(-c2cnc3[nH]cc(C(F)(F)F)c3c2)ccc1C1CCOCC1 [Compound A-28]	10 to 100
Cc1c[nH]c2ncc(-c3cc(O)c(C4CCOCC4)c(C4COCCN4)c3)cc12 (stereo not drawn) [Compound A-39]	0.01 to 5
Cc1cc(-c2cnc3[nH]cc(C)c3c2)cc(C2COCCN2)c1C1=CCOCC1 (stereo not drawn) [Compound A-12]	0.01 to 5
Cc1cc(-c2cnc3[nH]cc(C)c3c2)cc([C@@H]2COCCN2)c1C1CCOCC1 [Compound A-36]	0.01 to 5
Cc1c[nH]c2ncc(-c3ccc(C4CCOCC4)c(CN4CCCC4)n3)cc12 [Compound A-26]	10 to 100
Clc1c[nH]c2ncc(-c3ccc(C4CCOCC4)c([C@H]4COCCN4)n3)cc12 [Compound A-19]	10 to 100
FC(F)(F)c1c[nH]c2ncc(-c3ccc(C4CCOCC4)c([C@@H]4COCCN4)n3)cc12 [Compound A-18]	0.01 to 5
COc1cc(-c2cnc3[nH]cc(C(F)(F)F)c3c2)cc([C@H]2COCCN2)c1C1CCOCC1 [Compound A-35]	10 to 100

Structure (SMILES)	IC50 [nM]
COC(=O)c1c[nH]c2ncc(-c3ccc(C4CCOCC4)c(C4COCCN4)n3)cc12 (stereo not drawn) [Compound A-29]	0.01 to 5
Cc1c[nH]c2ncc(-c3cc(C4COCCN4)c(C4CCOCC4)cc3F)cc12 (stereo not drawn) [Compound A-11]	10 to 100
CN(C)C(=O)C#Cc1c[nH]c2ncc(-c3ccc(C4CCOCC4)c(C4COCCN4)c3)cc12 (single isomer, unassigned) [Compound A-14]	0.01 to 5
Cc1c[nH]c2ncc(-c3cc(Cl)c(C4CCOCC4)c(C4COCCN4)c3)cc12 (stereo not drawn) [Compound A-6]	0.01 to 5
c1nc2[nH]cc(C3CC3)c2cc1-c1ccc(C2CCOCC2)c([C@H]2COCCN2)n1 [Compound A-16]	10 to 100
COc1cc(-c2cnc3[nH]cc(C(F)(F)F)c3c2)cc([C@@H]2COCCN2)c1C1CCOCC1 [Compound A-34]	0.01 to 5
Cc1cc(-c2cnc3[nH]cc(C(F)(F)F)c3c2)cc([C@@H]2COCCN2)c1C1CCOCC1 [Compound A-33]	0.01 to 5
Cc1cc(-c2cnc3[nH]cc(C)c3c2)cc(C2COCCN2)c1C1CCOCC1 (stereo not drawn) [Compound A-5]	0.01 to 5
Cc1c[nH]c2ncc(-c3cc(C4COCCN4)c(C4CCOCC4)cc3Cl)cc12 (stereo not drawn) [Compound A-8]	10 to 100
Cc1cc(-c2cnc3[nH]cc(C(F)(F)F)c3c2)cc([C@H]2COCCN2)c1C1CCOCC1 [Compound A-32]	5 to 10
C[C@@H]1CCCN1Cc1nc(-c2cnc3[nH]cc(C4CC4)c3c2)ccc1C1CCOCC1 [Compound A-25]	0.01 to 5
FC(F)(F)C1(c2c[nH]c3ncc(-c4ccc(C5CCOCC5)c([C@@H]5COCCN5)n4)cc23)CC1 [Compound A-30]	0.01 to 5
Clc1c[nH]c2ncc(-c3ccc(C4CCOCC4)c([C@@H]4COCCN4)n3)cc12 [Compound A-20]	0.01 to 5
C[C@H]1CCCN1Cc1nc(-c2cnc3[nH]cc(C4CC4)c3c2)ccc1C1CCOCC1 [Compound A-24]	5 to 10
Cc1c[nH]c2ncc(-c3cc(Cl)c(C4=CCOCC4)c(C4COCCN4)c3)cc12 (stereo not drawn) [Compound A-13]	5 to 10
COc1cc(-c2cnc3[nH]cc(C)c3c2)cc([C@@H]2COCCN2)c1C1CCOCC1 [Compound A-38]	0.01 to 5
